Patent publication US11458138B2 (Novartis AG, priority 2017, dated 2022)

Columns and labels:
[1] = target: LATS1 (Homo sapiens (Human), UniProt O95835); assay: LATS1 biochemical assay (Table 1A, Compound Examples 1-290; method in the earlier part)
[2] = test system: YAP nuclear translocation in HaCaT cells; assay: YAP Translocation Assay (HaCaT Cells); assay type: cell-based, human; settings: Homo sapiens, 24 hours
Experimental: HaCaT cells were suspended at 0.4×10^6 cells/ml in DMEM+10% FBS with penicillin-streptomycin-glutamine. 50 μl of cells were dispensed into 384-well clear bottom assay plates (20,000 cells/well), and incubated overnight at 37° C. 100 nL test compound was transferred into the assay wells containing HaCaT cells using ECHO (Labcyte). After 24 hours incubation at 37° C., 7 μL of 32% PFA was dispensed into each well and incubated for 45 minutes at room temperature. Plates were washed 3 times with PBS, leaving 20 μL of PBS per well, then treated with 0.1% Triton and 1.5% BSA in PBS for 45 minutes at room temperature. Plates were washed for 5 times with PBS, leaving 20 μL of PBS per well. […] Plates were further washed 3 time with PBS, sealed and imaged on the high-content Opera imaging system (PerkinElmer).

[3] = test system: Phospho-YAP (SER127) in HaCaT cells; assay: pYAP HTRF Assay (HaCaT Cells); assay type: cell-based, human; settings: Homo sapiens, 2 hours
Experimental: The pYAP HTRF assay was performed using the Phospho-YAP (SER127) 10000 test kit (CisBio, catalogue number 64YAPPEH) according to manufacturer's instructions. Briefly, HaCaT cells were suspended at 1.1×10^6 cells/mL in DMEM (no phenol red)+10% FBS with penicillin-streptomycin-glutamine. 5 μL of cells were dispensed into 1536 well white solid bottom, tissue culture treated plates (5500 cells/well), and incubated for 48 hours at 37° C. 50 nL test compound was transferred into the assay plates containing HaCaT cells using Pintool (GNF) and incubated for 2 hours. […] The plates were incubated overnight (20 hrs) at room temperature covered with metal lids. Plates were read on Pherastar (BMG Labtech) for HTRF (665 nm/620 nm).

LATS1, sequence (O95835 whole entry, looked up): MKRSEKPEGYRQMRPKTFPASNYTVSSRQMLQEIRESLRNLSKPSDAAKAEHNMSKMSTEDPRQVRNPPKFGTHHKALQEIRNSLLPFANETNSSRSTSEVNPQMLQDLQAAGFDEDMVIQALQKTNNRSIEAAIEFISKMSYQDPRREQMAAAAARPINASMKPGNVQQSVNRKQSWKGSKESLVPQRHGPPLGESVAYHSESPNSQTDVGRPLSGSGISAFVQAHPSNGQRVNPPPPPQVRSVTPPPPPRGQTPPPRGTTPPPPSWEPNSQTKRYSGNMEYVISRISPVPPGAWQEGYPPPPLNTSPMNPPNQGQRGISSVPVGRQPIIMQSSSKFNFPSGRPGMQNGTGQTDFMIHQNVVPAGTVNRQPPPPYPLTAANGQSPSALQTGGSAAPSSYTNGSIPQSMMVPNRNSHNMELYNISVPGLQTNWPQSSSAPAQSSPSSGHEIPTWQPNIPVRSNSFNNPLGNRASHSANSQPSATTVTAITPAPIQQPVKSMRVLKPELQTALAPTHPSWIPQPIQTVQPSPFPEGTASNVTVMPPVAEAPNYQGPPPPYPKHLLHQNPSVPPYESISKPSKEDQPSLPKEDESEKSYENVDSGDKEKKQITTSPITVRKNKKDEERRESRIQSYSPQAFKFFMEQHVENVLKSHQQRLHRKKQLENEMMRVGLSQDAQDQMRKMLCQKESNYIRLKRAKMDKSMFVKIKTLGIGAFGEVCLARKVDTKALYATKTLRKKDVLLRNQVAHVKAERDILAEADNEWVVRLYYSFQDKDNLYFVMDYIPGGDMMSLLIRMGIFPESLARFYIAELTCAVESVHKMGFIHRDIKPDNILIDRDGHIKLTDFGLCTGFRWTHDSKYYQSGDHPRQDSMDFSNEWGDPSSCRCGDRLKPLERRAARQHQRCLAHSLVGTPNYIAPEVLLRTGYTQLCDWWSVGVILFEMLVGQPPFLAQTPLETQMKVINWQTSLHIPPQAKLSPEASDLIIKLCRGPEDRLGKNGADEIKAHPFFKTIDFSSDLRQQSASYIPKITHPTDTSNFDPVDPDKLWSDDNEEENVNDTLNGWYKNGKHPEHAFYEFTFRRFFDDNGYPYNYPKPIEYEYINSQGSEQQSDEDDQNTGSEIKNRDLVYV
LATS1, sequence (Q7L9L4 whole entry partner, looked up): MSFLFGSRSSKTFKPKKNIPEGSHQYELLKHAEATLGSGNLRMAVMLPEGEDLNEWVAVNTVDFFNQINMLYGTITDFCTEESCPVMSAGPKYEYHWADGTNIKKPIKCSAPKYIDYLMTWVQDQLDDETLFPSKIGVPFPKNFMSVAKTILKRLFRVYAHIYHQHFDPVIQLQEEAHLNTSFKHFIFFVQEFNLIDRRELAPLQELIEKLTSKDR

SMILES | IC50 [1] | EC50 [2] | IC50 [3]
CC(C)(O)COCC(C)(C)Nc1nc(-c2ccncc2Cl)nc2cnccc12 [Example 127, 1-(2-{[2-(3-chloropyridin-4-yl)pyrido[3,4-d]pyrimidin-4-yl]amino}-2-methylpropoxy)-2-methylpropan-2-ol] | 55 nM | > 20000 nM | –
Cc1cnccc1-c1nc(N(C)C(C)C)c2ccncc2n1 [Example 128, N-methyl-2-(3-methylpyridin-4-yl)-N-(propan-2-yl)pyrido[3,4-d]pyrimidin-4-amine] | 77 nM | > 20000 nM | –
CC(C)(CCS(C)(=O)=O)Nc1nc(-c2ccncc2Cl)nc2cnccc12 [Example 129, 2-(3-chloropyridin-4-yl)-N-(4-methanesulfonyl-2-methylbutan-2-yl)pyrido[3,4-d]pyrimidin-4-amine] | 187 nM | > 20000 nM | –
CC(C)(C)Nc1nc(-c2cc(Cl)ncc2C(F)(F)F)nc2cnccc12 [Example 131, N-tert-butyl-2-[2-chloro-5-(trifluoromethyl)pyridin-4-yl]pyrido[3,4-d]pyrimidin-4-amine] | > 833 nM | > 20000 nM | –
Clc1cnccc1-c1nc(NCCCc2nnn[nH]2)c2ccncc2n1 [Example 132, 2-(3-chloropyridin-4-yl)-N-[3-(1H-1,2,3,4-tetrazol-5-yl)propyl]pyrido[3,4-d]pyrimidin-4-amine] | > 2500 nM | > 20000 nM | –
Cc1n[nH]c(C)c1-c1nc(NC(C)(C)C(F)(F)F)c2ccncc2n1 [Example 144, 2-(3,5-dimethyl-1H-pyrazol-4-yl)-N-(1,1,1-trifluoro-2-methylpropan-2-yl)pyrido[3,4-d]pyrimidin-4-amine] | – | 4440 nM | 606 nM
CC(C)(O)CC(C)(C)Nc1nc(-c2ccncc2C#N)nc2cnccc12 [Example 146, 4-{4-[(4-hydroxy-2,4-dimethylpentan-2-yl)amino]pyrido[3,4-d]pyrimidin-2-yl}pyridine-3-carbonitrile] | 33 nM | > 20000 nM | –
CCCNc1nc(-c2cn(C)c3ncccc23)nc2cnccc12 [Example 165, 2-{1-methyl-1H-pyrrolo[2,3-b]pyridin-3-yl}-N-propylpyrido[3,4-d]pyrimidin-4-amine] | > 2500 nM | > 20000 nM | –
Cc1n[nH]cc1-c1nc(NC(C)c2ccncc2)c2ccncc2n1 (stereo not drawn) [Example 190, 2-(3-methyl-1H-pyrazol-4-yl)-N-[1-(pyridin-4-yl)ethyl]pyrido[3,4-d]pyrimidin-4-amine] | 99 nM | > 20000 nM | –
CC(C)N(C)c1cc(-c2ccncc2)nc2cnccc12 [Example 259, N-methyl-N-(propan-2-yl)-2-(pyridin-4-yl)-1,7-naphthyridin-4-amine] | 61 nM | 17300 nM | –
CC(C)(CCO)Nc1cc(-c2ccncc2)nc2cnccc12 [Example 260, 3-methyl-3-{[2-(pyridin-4-yl)-1,7-naphthyridin-4-yl]amino}butan-1-ol] | 459 nM | > 20000 nM | –
CC1(C)CC(O)CCN1c1cc(-c2ccncc2)nc2cnccc12 (stereo not drawn) [Example 262, 2,2-dimethyl-1-[2-(pyridin-4-yl)-1,7-naphthyridin-4-yl]piperidin-4-ol] | 3 nM | 311 nM | –
CCN(CC)c1cc(-c2ccncc2)nc2cnccc12 [Example 266, N,N-diethyl-2-(pyridin-4-yl)-1,7-naphthyridin-4-amine] | 9 nM | 5350 nM | –
CC(C)N(C)c1cc(-c2ccncc2F)nc2cnccc12 [Example 277, 2-(3-fluoropyridin-4-yl)-N-methyl-N-(propan-2-yl)-1,7-naphthyridin-4-amine] | 65 nM | > 20000 nM | –
Fc1cnccc1-c1cc(N2CCCCC2)c2ccncc2n1 [Example 278, 2-(3-fluoropyridin-4-yl)-4-(piperidin-1-yl)-1,7-naphthyridine] | 90 nM | > 20000 nM | –
Fc1cnccc1-c1cc(N2CCOCC2)c2ccncc2n1 [Example 279, 2-(3-fluoropyridin-4-yl)-4-(morpholin-4-yl)-1,7-naphthyridine] | > 2500 nM | > 20000 nM | –
CC(C)(C)Nc1cc(-c2ccncc2Cl)nc2cnccc12 [Example 285, N-tert-butyl-2-(3-chloropyridin-4-yl)-1,7-naphthyridin-4-amine] | 190 nM | > 20000 nM | –
CCN(CC)c1cc(-c2ccncc2Cl)nc2cnccc12 [Example 286, 2-(3-chloropyridin-4-yl)-N,N-diethyl-1,7-naphthyridin-4-amine] | 560 nM | > 20000 nM | –

Second part, led by results:

IC50 [1] | SMILES | EC50 [2] | IC50 [3]
1150 nM | CC(C)(C)Nc1nc(-c2ccncc2C(F)(F)F)nc2cnccc12 [Example 130, N-tert-butyl-2-[3-(trifluoromethyl)pyridin-4-yl]pyrido[3,4-d]pyrimidin-4-amine] | > 20000 nM | –
168 nM | CC1(Nc2nc(-c3ccnc(F)c3F)nc3cnccc23)CC1 [Example 148, 2-(2,3-difluoropyridin-4-yl)-N-(1-methylcyclopropyl)pyrido[3,4-d]pyrimidin-4-amine] | > 20000 nM | –
> 2500 nM | CC1(Nc2nc(-c3cnoc3)nc3cnccc23)CC1 [Example 152, N-(1-methylcyclopropyl)-2-(1,2-oxazol-4-yl)pyrido[3,4-d]pyrimidin-4-amine] | > 20000 nM | –
49 nM | CCCNc1nc(-c2ccncc2Cl)nc2cnccc12 [Example 162, 2-(3-chloropyridin-4-yl)-N-propylpyrido[3,4-d]pyrimidin-4-amine] | > 20000 nM | –
51 nM | CCCNc1nc(-c2c[nH]nc2C2CC2)nc2cnccc12 [Example 163, 2-(3-cyclopropyl-1H-pyrazol-4-yl)-N-propylpyrido[3,4-d]pyrimidin-4-amine] | > 20000 nM | –
159 nM | CCCNc1nc(-c2ccncc2C)nc2cnccc12 [Example 164, 2-(3-methylpyridin-4-yl)-N-propylpyrido[3,4-d]pyrimidin-4-amine] | > 20000 nM | –
14 nM | CC(C)(O)CC(C)(C)Nc1nc(-c2cn[nH]c2)nc2cnccc12 [Example 166, 2,4-dimethyl-4-{[2-(1H-pyrazol-4-yl)pyrido[3,4-d]pyrimidin-4-yl]amino}pentan-2-ol] | 8450 nM | –
143 nM | C[C@@H](Nc1nc(-c2cn[nH]c2)nc2cnccc12)c1ccccc1 [Example 167, N-[(1R)-1-phenylethyl]-2-(1H-pyrazol-4-yl)pyrido[3,4-d]pyrimidin-4-amine] | > 20000 nM | –
54 nM | CN(c1nc(-c2cn[nH]c2)nc2cnccc12)C1(C)CC1 [Example 171, N-methyl-N-(1-methylcyclopropyl)-2-(1H-pyrazol-4-yl)pyrido[3,4-d]pyrimidin-4-amine] | 17200 nM | –
61 nM | CCn1nccc1-c1nc(NC2(C)CC2)c2ccncc2n1 [Example 173, 2-(1-ethyl-1H-pyrazol-5-yl)-N-(1-methylcyclopropyl)pyrido[3,4-d]pyrimidin-4-amine] | > 20000 nM | –
> 2500 nM | CC1(Nc2nc(-c3ccn[nH]3)nc3cnccc23)CC1 [Example 176, N-(1-methylcyclopropyl)-2-(1H-pyrazol-5-yl)pyrido[3,4-d]pyrimidin-4-amine] | > 20000 nM | –
> 2500 nM | CC1(Nc2nc(-c3cnc[nH]3)nc3cnccc23)CC1 [Example 177, 2-(1H-imidazol-5-yl)-N-(1-methylcyclopropyl)pyrido[3,4-d]pyrimidin-4-amine] | > 20000 nM | –
> 2500 nM | Cn1cncc1-c1nc(NC2(C)CC2)c2ccncc2n1 [Example 178, 2-(1-methyl-1H-imidazol-5-yl)-N-(1-methylcyclopropyl)pyrido[3,4-d]pyrimidin-4-amine] | > 20000 nM | –
9000 nM | Cc1cc(-c2nc(NC3(C)CC3)c3ccncc3n2)on1 [Example 181, 2-(3-methyl-1,2-oxazol-5-yl)-N-(1-methylcyclopropyl)pyrido[3,4-d]pyrimidin-4-amine] | > 10000 nM | –
> 10000 nM | CC1(Nc2nc(-c3nn[nH]n3)nc3cnccc23)CC1 [Example 182, N-(1-methylcyclopropyl)-2-(2H-1,2,3,4-tetrazol-5-yl)pyrido[3,4-d]pyrimidin-4-amine] | > 20000 nM | –
797 nM | CC(Nc1nc(-c2cn[nH]c2)nc2cnccc12)c1ccncc1 (stereo not drawn) [Example 183, 2-(1H-pyrazol-4-yl)-N-[1-(pyridin-4-yl)ethyl]pyrido[3,4-d]pyrimidin-4-amine] | > 20000 nM | –
9 nM | Cc1n[nH]cc1-c1nc(NC2(CO)CCC2)c2ccncc2n1 [Example 185, (1-{[2-(3-methyl-1H-pyrazol-4-yl)pyrido[3,4-d]pyrimidin-4-yl]amino}cyclobutyl)methanol] | 11500 nM | –
83 nM | Cn1nccc1-c1nc(NC2(C(F)(F)F)CC2)c2ccncc2n1 [Example 189, 2-(1-methyl-1H-pyrazol-5-yl)-N-[1-(trifluoromethyl)cyclopropyl]pyrido[3,4-d]pyrimidin-4-amine] | > 10000 nM | –
